Measurements reported in ChEMBL document CHEMBL1156106 (J Med Chem, 2009).

Columns and labels:
Rattus norvegicus [1] = assay: Effect on behavioural activity in rat assessed as cocaine-induced lever response at 100 mg/kg, ip pretreated with cocaine for 50 mins by drug-discrimination studies; type: functional; settings: route intraperitoneal
Mus musculus [2] = assay: Antidepressant activity in ip dosed mouse assessed as stimulation of locomotor activity relative to cocaine; type: functional
Mus musculus [3] = assay: Antidepressant activity in ip dosed mouse assessed as duration of locomotor activity; type: functional
Mus musculus [4] = assay: Antidepressant activity in ip dosed mouse assessed as time to reach peak stimulation of locomotor activity; type: functional
Rattus norvegicus [5] = assay: Effect on behavioural activity in rat assessed as cocaine-induced lever response at 50 mg/kg, ip pretreated with cocaine for 50 mins by drug-discrimination studies; type: functional; settings: route intraperitoneal
Mus musculus [6] = assay: Antidepressant activity in ip dosed mouse assessed as stimulation of locomotor activity; type: functional
Rattus norvegicus [7] = assay: Effect on behavioural activity in rat assessed as cocaine-induced lever response at 10 mg/kg, ip pretreated with cocaine for 45 mins by drug-discrimination studies; type: functional; settings: route intraperitoneal
[8] = molecular target: Sodium-dependent noradrenaline transporter (Homo sapiens, UniProt P23975); assay: Displacement of [125I]RTI55 from cloned human NET expressed in HEK293 cells; type: cell-based
[9] = molecular target: Sodium-dependent dopamine transporter (Homo sapiens, UniProt Q01959); assay: Displacement of [125I]RTI55 from cloned human DAT expressed in HEK293 cells; type: cell-based
[10] = molecular target: Sodium-dependent serotonin transporter (Homo sapiens, UniProt P31645); assay: biochemical; type: cell-based, HEK293
Rattus norvegicus [11] = assay: Effect on behavioural activity in rat assessed as cocaine-induced lever response at 100 mg/kg, ip pretreated with cocaine for 45 mins by drug-discrimination studies; type: functional; settings: route intraperitoneal
Rattus norvegicus [12] = assay: Effect on behavioural activity in rat assessed as cocaine-induced lever response at 50 mg/kg, ip pretreated with cocaine for 75 mins by drug-discrimination studies; type: functional; settings: route intraperitoneal
Rattus norvegicus [13] = assay: Effect on behavioural activity in rat assessed as cocaine-induced lever response at 25 mg/kg, po pretreated with cocaine for 360 mins by drug-discrimination studies; type: functional
Rattus norvegicus [14] = assay: Effect on behavioural activity in rat assessed as cocaine-induced lever response at 25 mg/kg, po pretreated with cocaine for 180 mins by drug-discrimination studies; type: functional
Rattus norvegicus [15] = assay: Effect on behavioural activity in rat assessed as cocaine-induced lever response at 25 mg/kg, po pretreated with cocaine for 45 mins by drug-discrimination studies; type: functional
Rattus norvegicus [16] = assay: Effect on behavioural activity in rat assessed as cocaine-induced lever response at 25 mg/kg, ip pretreated with cocaine for 75 mins by drug-discrimination studies; type: functional; settings: route intraperitoneal
Rattus norvegicus [17] = assay: Effect on behavioural activity in rat assessed as cocaine-induced lever response at 50 mg/kg, po pretreated with cocaine for 360 mins by drug-discrimination studies; type: functional
Rattus norvegicus [18] = assay: Effect on behavioural activity in rat assessed as cocaine-induced lever response at 100 mg/kg, ip pretreated with cocaine for 75 mins by drug-discrimination studies; type: functional; settings: route intraperitoneal
Rattus norvegicus [19] = assay: Effect on behavioural activity in rat assessed as cocaine-induced lever response at 25 mg/kg, po pretreated with cocaine for 90 mins by drug-discrimination studies; type: functional
Rattus norvegicus [20] = assay: Effect on behavioural activity in rat assessed as cocaine-induced lever response at 10 mg/kg, po pretreated with cocaine for 45 mins by drug-discrimination studies; type: functional
Rattus norvegicus [21] = assay: Effect on behavioural activity in rat assessed as cocaine-induced lever response at 10 mg/kg, po pretreated with cocaine for 90 mins by drug-discrimination studies; type: functional
Rattus norvegicus [22] = assay: Effect on behavioural activity in rat assessed as cocaine-induced lever response at 50 mg/kg, po pretreated with cocaine for 90 mins by drug-discrimination studies; type: functional
Rattus norvegicus [23] = assay: Effect on behavioural activity in po dosed rat assessed as cocaine-induced lever response pretreated with cocaine by drug-discrimination studies; type: functional
Rattus norvegicus [24] = assay: Effect on behavioural activity in rat assessed as cocaine-induced lever response at 50 mg/kg, po pretreated with cocaine for 180 mins by drug-discrimination studies; type: functional
Rattus norvegicus [25] = assay: Effect on behavioural activity in rat assessed as cocaine-induced lever response at 10 mg/kg, po pretreated with cocaine for 180 mins by drug-discrimination studies; type: functional
Rattus norvegicus [26] = assay: Effect on behavioural activity in rat assessed as cocaine-induced lever response at 50 mg/kg, po pretreated with cocaine for 45 mins by drug-discrimination studies; type: functional
Rattus norvegicus [27] = assay: Effect on behavioural activity in rat assessed as cocaine-induced lever response at 10 mg/kg, ip pretreated with cocaine for 75 mins by drug-discrimination studies; type: functional; settings: route intraperitoneal
Rattus norvegicus [28] = assay: Effect on behavioural activity in rat assessed as cocaine-induced lever response at 25 mg/kg, ip pretreated with cocaine for 45 mins by drug-discrimination studies; type: functional; settings: route intraperitoneal
Rattus norvegicus [29] = assay: Effect on behavioural activity in rat assessed as cocaine-induced lever response at 50 mg/kg, ip pretreated with cocaine for 45 mins by drug-discrimination studies; type: functional; settings: route intraperitoneal

Sodium-dependent serotonin transporter, sequence (P31645 whole entry): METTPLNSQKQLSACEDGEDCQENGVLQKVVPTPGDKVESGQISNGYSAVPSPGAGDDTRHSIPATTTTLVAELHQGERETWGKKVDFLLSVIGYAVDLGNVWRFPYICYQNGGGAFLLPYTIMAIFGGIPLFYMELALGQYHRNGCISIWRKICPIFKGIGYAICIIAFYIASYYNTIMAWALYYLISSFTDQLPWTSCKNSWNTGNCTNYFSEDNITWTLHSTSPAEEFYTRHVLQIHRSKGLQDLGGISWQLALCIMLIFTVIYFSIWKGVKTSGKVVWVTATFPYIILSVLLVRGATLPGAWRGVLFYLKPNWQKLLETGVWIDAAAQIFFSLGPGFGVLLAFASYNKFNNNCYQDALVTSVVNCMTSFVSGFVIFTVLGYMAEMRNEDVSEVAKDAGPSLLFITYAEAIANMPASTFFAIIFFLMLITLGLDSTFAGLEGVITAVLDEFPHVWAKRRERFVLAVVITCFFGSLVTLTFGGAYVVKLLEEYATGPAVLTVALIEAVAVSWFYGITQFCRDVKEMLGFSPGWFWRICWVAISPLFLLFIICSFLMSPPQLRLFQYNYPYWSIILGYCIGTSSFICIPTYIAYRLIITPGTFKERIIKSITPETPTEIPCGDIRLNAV
Sodium-dependent dopamine transporter, sequence (Q01959 whole entry): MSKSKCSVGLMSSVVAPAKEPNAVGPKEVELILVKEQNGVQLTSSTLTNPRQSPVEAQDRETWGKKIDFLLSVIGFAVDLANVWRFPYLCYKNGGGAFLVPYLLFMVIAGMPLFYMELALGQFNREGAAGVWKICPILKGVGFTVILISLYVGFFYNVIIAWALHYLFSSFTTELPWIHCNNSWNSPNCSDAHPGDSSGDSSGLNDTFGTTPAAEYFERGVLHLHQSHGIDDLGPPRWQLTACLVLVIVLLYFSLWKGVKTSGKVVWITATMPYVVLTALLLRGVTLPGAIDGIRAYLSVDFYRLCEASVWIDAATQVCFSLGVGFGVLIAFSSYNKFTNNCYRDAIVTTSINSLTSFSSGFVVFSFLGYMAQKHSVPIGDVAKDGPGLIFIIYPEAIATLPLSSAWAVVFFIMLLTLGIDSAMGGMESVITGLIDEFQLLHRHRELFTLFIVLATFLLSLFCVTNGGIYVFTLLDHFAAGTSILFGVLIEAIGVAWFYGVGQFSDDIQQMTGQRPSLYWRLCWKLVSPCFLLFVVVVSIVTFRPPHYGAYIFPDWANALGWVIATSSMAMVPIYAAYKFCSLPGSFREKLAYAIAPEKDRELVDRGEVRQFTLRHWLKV
Sodium-dependent noradrenaline transporter, sequence (P23975 whole entry): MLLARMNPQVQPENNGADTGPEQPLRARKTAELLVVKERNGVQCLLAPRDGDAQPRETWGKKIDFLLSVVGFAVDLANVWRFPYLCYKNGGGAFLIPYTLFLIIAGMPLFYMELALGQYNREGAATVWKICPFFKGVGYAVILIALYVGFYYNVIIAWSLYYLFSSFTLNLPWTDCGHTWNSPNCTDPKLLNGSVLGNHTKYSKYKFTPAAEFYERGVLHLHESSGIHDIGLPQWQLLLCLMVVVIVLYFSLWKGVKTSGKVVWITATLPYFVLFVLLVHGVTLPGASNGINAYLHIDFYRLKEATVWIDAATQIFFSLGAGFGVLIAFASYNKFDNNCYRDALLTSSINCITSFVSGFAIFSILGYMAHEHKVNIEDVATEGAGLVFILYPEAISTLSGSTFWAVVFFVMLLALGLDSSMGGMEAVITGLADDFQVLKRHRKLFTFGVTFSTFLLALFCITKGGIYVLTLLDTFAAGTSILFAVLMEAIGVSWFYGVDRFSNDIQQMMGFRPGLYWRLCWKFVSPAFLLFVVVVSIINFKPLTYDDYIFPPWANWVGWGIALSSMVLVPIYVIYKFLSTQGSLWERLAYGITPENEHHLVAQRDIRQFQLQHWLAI

Question: For `Cc1cc(C(=O)C(C)NC(C)(C)C)ccc1Br` (configuration not stated), which Activity (Rattus norvegicus [1]) is on record?
Answer: 66.9%

Question: And the Activity (Mus musculus [2])?
Answer: 36%

Question: And the Time (Mus musculus [3])?
Answer: 240 min

Question: And the “Time to peak locomotor stimulation” value (Mus musculus [4])?
Answer: 50 min

Question: And the Activity (Rattus norvegicus [5])?
Answer: 16.7%

Question: And the ED50 (Mus musculus [6])?
Answer: 12.6 mg/kg

Question: For `CC(NC(C)(C)C)C(=O)c1ccc(F)c(F)c1` (configuration not stated), which Activity (Mus musculus [2]) is on record?
Answer: 58%

Question: What about the Activity (Rattus norvegicus [7]) of the same compound?
Answer: 1.7%

Question: And the Ki [8]?
Answer: > 10 µM

Question: What about the Ki [9] of the same compound?
Answer: > 10 µM

Question: What about the Ki [10] of the same compound?
Answer: > 10 µM

Question: And the Time (Mus musculus [3])?
Answer: 60 min

Question: And the “Time to peak locomotor stimulation” value (Mus musculus [4])?
Answer: 10 min

Question: What about the Activity (Rattus norvegicus [11]) of the same compound?
Answer: 63.9%

Question: Which results are given for `CCCCCCC(NC(C)(C)C)C(=O)c1cccc(Cl)c1` (configuration not stated)?
Answer: Activity (Rattus norvegicus [12]): 49.9%; Activity (Rattus norvegicus [13]): 0%; Activity (Rattus norvegicus [14]): 0%; Activity (Mus musculus [2]): 94%; Activity (Rattus norvegicus [15]): 0%; Activity (Rattus norvegicus [16]): 48.5%; Activity (Rattus norvegicus [17]): 0%; Activity (Rattus norvegicus [18]): 67.2%; Ki [10]: > 10 µM; Time (Mus musculus [3]): 130 min; Activity (Rattus norvegicus [19]): 0%; Activity (Rattus norvegicus [20]): 0%; Time to peak locomotor stimulation (Mus musculus [4]): 110 min; Activity (Rattus norvegicus [21]): 0%; Activity (Rattus norvegicus [22]): 17%; ED50 (Rattus norvegicus [23]): 46.9 mg/kg; Activity (Rattus norvegicus [24]): 25%; Activity (Rattus norvegicus [25]): 0%; Activity (Rattus norvegicus [26]): 83%; Activity (Rattus norvegicus [27]): 0%; ED50 (Mus musculus [6]): 5.6 mg/kg

Question: What does the source list for `CCCCCC(NC(C)(C)C)C(=O)c1cccc(Cl)c1` (configuration not stated)?
Answer: Activity (Mus musculus [2]): 90%; Activity (Rattus norvegicus [28]): 1%; Activity (Rattus norvegicus [29]): 50.9%; Ki [10]: > 10 µM; Time (Mus musculus [3]): 280 min; Time to peak locomotor stimulation (Mus musculus [4]): 60 min; ED50 (Mus musculus [6]): 12.9 mg/kg
